Measurements as given in patent US11925629B2, “Heterocyclic inhibitors of ERK1 and ERK2 and their use in the treatment of cancer” (Asana Biosciences, LLC, priority 2015, dated 2024).
Read-outs that look alike come from different tables or passages of the source.

Experiments:
[1] = biological target: T1, ERK1 (Homo sapiens, UniProt P27361); assay: ERK1 HTRF (biochemical) assay; conditions: HTRF
T1 construct: purchased Jubilant Biosys
Procedure: (§1) ERK1 and ERK2 HTRF (Biochemical) Assays
These assays employed a homogeneous time resolved fluorescence (HTRF) technique. […] The plate was incubated at room temperature for 60 min with shaking. […] The IC50 values (half maximal inhibitory concentration values) were subsequently determined using a sigmoidal dose-response curve (variable slope) in GraphPad Prism® 5 software.

[2] = biological target: T2, ERK2 (Homo sapiens, UniProt P28482); assay: ERK2 HTRF (biochemical) assay; conditions: HTRF
T2 construct: purchased Jubilant Biosys
T2 sequence (P28482 whole entry): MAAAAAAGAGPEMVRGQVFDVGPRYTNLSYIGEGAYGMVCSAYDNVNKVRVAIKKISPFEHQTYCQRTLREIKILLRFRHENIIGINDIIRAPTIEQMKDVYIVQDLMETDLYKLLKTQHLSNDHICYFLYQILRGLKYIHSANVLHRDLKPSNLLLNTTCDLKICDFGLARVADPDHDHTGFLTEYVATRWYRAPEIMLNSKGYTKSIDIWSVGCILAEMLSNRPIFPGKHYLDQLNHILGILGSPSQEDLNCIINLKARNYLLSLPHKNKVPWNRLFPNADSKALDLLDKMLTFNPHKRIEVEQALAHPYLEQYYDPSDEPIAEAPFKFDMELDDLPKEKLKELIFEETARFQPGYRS
Procedure: as §1
These assays employed a homogeneous time resolved fluorescence (HTRF) technique. The compounds were serially diluted by half-log with concentrations ranging from 0.0005 to 10 uM in the assay buffer (50 mM Tris pH=7.5, 1 mM EGTA, 2 mM DTT, 10 mM MgCl2, 0.100 Tween-20) and 20 uL of substrate-ATP mix [1 uM Biotin-LC-Myelin Basic Protein (MBP) derivatized Peptide (Anaspec)-24 uM ATP (Sigma)] was added to each well of the assay plate. Then 10 uL of enzyme mix [25 nM ERK1 or ERK2 (Jubilant Biosys) in assay buffer] was added to each well. The plate was incubated at room temperature for 60 min with shaking. The HTRF mix [625 nM LANCER Ultra Europium-anti-phospho-MBP (Perkin Elmer) and 2 nM Phycolink® Streptavidin-Allophycocyanin (SA-APC) (Prozyme) in HTRF buffer (50 mM Tris-HCl pH=7.5, 100 mM NaCl, 0.1% BSA, 0.05% Tween20, 0.5 mM EDTA)] was prepared and 75 uL of this mix was added to the HTRF plate. After incubation for 60 min at room temperature, 10 uL of the reaction mixture was transferred to the HTRF assay plate and incubated for 45 min at room temperature with shaking. Plate was read using Pherastar in HTRF mode (excitation 337 nm, emission 665 & 620 nm). The IC50 values (half maximal inhibitory concentration values) were subsequently determined using a sigmoidal dose-response curve (variable slope) in GraphPad Prism® 5 software.

[3] = tested on: HCT116 (colorectal carcinoma, K Ras G13D) cells; assay: Cell proliferation (Alamar Blue) assay, HCT116; assay type: cell-based, human; conditions: Homo sapiens, HCT-116, HCT116 cells
In short: (§2)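 5000 cells/well, 16-24 h attach; cpd 0.0005-10 uM (3-fold dilns) x 72 h, 37° C./5% CO2; Alamar Blue 1× 1-3 h; fluor 540/590 nm; IC50, variable-slope sigmoid.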

[4] = tested on: phosphorylation of RSK1(S380) (the downstream target of ERK1/2); assay: Phospho-RSK1(S380) ELISA assay in HT-29 cells; assay type: cell-based, human; conditions: Homo sapiens, HT-29, HT29 cells, read-out: Mechanistic Cell Assay RSK1 Phos HT29 IC50
In short: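 IC50 values derive from a variable-slope sigmoidal fit of sandwich-ELISA signal (450 nm) for RSK1 Ser380 phosphorylation. The cells were B-RafV600E HT-29 colorectal line, exposed to serially diluted compound for 2 h after overnight seeding, then lysed at 4° C.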

[5] = tested on: HT-29 (colorectal carcinoma, B-RafV600E) cells; assay: Cell proliferation (Alamar Blue) assay, HT-29; assay type: cell-based, human; conditions: Homo sapiens, HT-29, HT29 cells
In short: as §2

T1 sequence (P27361 whole entry): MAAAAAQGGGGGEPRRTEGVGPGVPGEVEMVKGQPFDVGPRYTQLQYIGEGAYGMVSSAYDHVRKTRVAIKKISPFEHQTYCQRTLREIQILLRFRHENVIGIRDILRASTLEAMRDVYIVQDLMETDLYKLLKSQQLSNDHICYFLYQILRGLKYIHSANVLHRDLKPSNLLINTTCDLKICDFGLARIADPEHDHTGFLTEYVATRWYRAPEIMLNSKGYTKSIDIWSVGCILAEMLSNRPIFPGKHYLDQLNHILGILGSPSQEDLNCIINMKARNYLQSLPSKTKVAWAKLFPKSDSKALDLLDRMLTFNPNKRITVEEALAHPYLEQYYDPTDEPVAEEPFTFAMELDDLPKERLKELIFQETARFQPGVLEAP

IC50 [1] | IC50 [2] | IC50 [3] | IC50 ([4]; phospho-RSK1(S380)) | IC50 [5] | IC50 [4] | SMILES
100 to 500 nM | 50 to 100 nM | – | – | – | – | Cc1cnc(N[C@H]2CCOC2)nc1-n1cnc(C(=O)NC(C)(C)c2cccc(Cl)c2CO)c1 [Example 347, (S)-N-(2-(3-chloro-2-(hydroxymethyl)-phenyl)propan-2-yl)-1-(5-methyl-2-((tetrahydrofuran-3-yl)amino)pyrimidin-4-yl)-1H-imidazole-4-carboxamide]
– | – | 500 to 2500 nM | 500 to 2500 nM | 250 to 500 nM | – | Cc1cnc(Nc2ccc(F)cc2Cl)nc1-n1ccc(C(=O)NC(CN)c2cccc(Cl)c2)c1 (centres unmarked) [Example 169, N-(2-amino-1-(3-chlorophenyl)ethyl)-1-(2-((2-chloro-4-fluorophenyl)amino)-5-methylpyrimidin-4-yl)-1H-pyrrole-3-carboxamide]
– | – | > 2500 nM | 500 to 2500 nM | > 2500 nM | – | Cc1cnc(NC2CCOC2)cc1-n1ccc(C(=O)NC(CO)c2cccc(Cl)c2)c1 (centres unmarked) [Example 165, N-(1-(3-chloro-phenyl)-2-hydroxy-ethyl)-1-(5-methyl-2-((tetra-hydrofuran-3-yl)amino)pyridin-4-yl)-1H-pyrrole-3-carboxamide]
– | – | ≤ 100 nM | – | ≤ 100 nM | 100 to 250 nM | CC(=O)OCc1c(Cl)cccc1CNC(=O)c1cn(-c2nc(N[C@H]3CCOC3)ncc2C)cn1 [Example 342, (S)-2-chloro-6-((1-(5-methyl-2-((tetrahydrofuran-3-yl)amino)pyrimidin-4-yl)-1H-imidazole-4-carboxamido)-methyl)benzyl acetate]
– | – | 250 to 500 nM | 100 to 250 nM | 500 to 2500 nM | – | Cc1cnc(Nc2ccc(F)cc2)nc1-n1ccc(C(=O)NC(CO)c2ccccc2)c1 (centres unmarked) [Example 114, 1-(2-((4-fluoro-phenyl)amino)-5-methyl-pyrimidin-4-yl)-N-(2-hydroxy-1-phenylethyl)-1H-pyrrole-3-carboxamide]
– | – | 500 to 2500 nM | 500 to 2500 nM | 500 to 2500 nM | – | CNC(=O)c1ccc(Nc2ncc(C)c(-n3ccc(C(=O)NC(CO)c4cccc(Cl)c4)c3)n2)cc1 (centres unmarked) [Example 196, N-(1-(3-chlorophenyl)-2-hydroxyethyl)-1-(5-methyl-2-((4-(methylcarbamoyl)phenyl)amino)pyrimidin-4-yl)-1H-pyrrole-3-carboxamide]
– | – | 250 to 500 nM | – | 250 to 500 nM | 100 to 250 nM | Cc1cnc(NC2CCOCC2)nc1-n1cnc(C(=O)NCc2ccc(Cl)cc2CO)c1 [Example 343, N-(4-chloro-2-hydroxymethylbenzyl)-1-(5-methyl-2-((tetrahydro-2H-pyran-4-yl)amino)-pyrimidin-4-yl)-1H-imidazole-4-carboxamide]
– | – | > 2500 nM | 500 to 2500 nM | > 2500 nM | – | CCNc1ncc(C)c(-n2ccc(C(=O)NC(CO)c3ccccc3)c2)n1 (centres unmarked) [Example 130, 1-(2-(ethyl-amino)-5-methyl-pyrimidin-4-yl)-N-(2-hydroxy-1-phenylethyl)-1H-pyrrole-3-carboxamide]

Further lines, the compound ahead of its results:

SMILES | IC50 [1] | IC50 [2] | IC50 [3] | IC50 ([4]; phospho-RSK1(S380)) | IC50 [5] | IC50 [4]
Cc1cnc(NC2CCOCC2)nc1-n1cnc(C(=O)NCc2ccccc2CO)c1 [Example 287, N-(2-(hydroxymethyl)benzyl)-1-(5-methyl-2-((tetrahydro-2H-pyran-4-yl)amino)pyrimidin-4-yl)-1H-imidazole-4-carboxamide] | – | – | 250 to 500 nM | 500 to 2500 nM | ≤ 100 nM | –
Cc1cnc(Nc2ccc3c(c2)OCO3)nc1-n1ccc(C(=O)NC(CO)c2ccccc2)c1 (centres unmarked) [Example 47, 1-(2-(benzo[d][1,3]dioxol-5-ylamino)-5-methyl-pyrimidin-4-yl)-N-(2-hydroxy-1-phenylethyl)-1H-pyrrole-3-carboxamide] | – | – | 250 to 500 nM | 250 to 500 nM | 100 to 250 nM | –
CC[C@H](CO)Nc1ncc(C)c(-n2ccc(C(=O)NC(CO)c3cccc(Cl)c3)c2)n1 (stereo partly drawn) [Example 167, N-(1-(3-chloro-phenyl)-2-hydroxy-ethyl)-1-(2-(((R)-1-hydroxy-butan-2-yl)amino)-5-methyl-pyrimidin-4-yl)-1H-pyrrole-3-carboxamide] | – | – | > 2500 nM | 500 to 2500 nM | 500 to 2500 nM | –
Cc1cnc(NC2CCOCC2)nc1-n1cnc(C(=O)N[C@H](CN(C)C)c2cccc(Cl)c2)c1 [Example 320, (S)-N-(1-(3-chlorophenyl)-2-(dimethylamino)ethyl)-1-(5-methyl-2-((tetrahydro-2H-pyran-4-yl)amino)pyrimidin-4-yl)-1H-imidazole-4-carboxamide] | – | – | 500 to 2500 nM | – | 250 to 500 nM | 250 to 500 nM
CC[C@@H](CO)Nc1ncc(C)c(-n2ccc(C(=O)N[C@H](CO)c3ccc(F)c(Cl)c3)c2)n1 [Example 133, N-((S)-1-(3-chloro-4-fluorophenyl)-2-hydroxy-ethyl)-1-(2-(((S)-1-hydroxy-butan-2-yl)amino)-5-methyl-pyrimidin-4-yl)-1H-pyrrole-3-carboxamide] | – | – | 500 to 2500 nM | 250 to 500 nM | 250 to 500 nM | –
O=C(NC(CO)c1cccc(Cl)c1)c1cn(-c2cc(Nc3ccccc3)ncc2Cl)cn1 (centres unmarked) [Cmpd 106, 1-(5-chloro-2-(phenyl-amino)pyridin-4-yl)-N-(1-(3-chlorophenyl)-2-hydroxy-ethyl)-1H-imidazole-4-carboxamide] | – | – | > 2500 nM | 100 to 250 nM | 500 to 2500 nM | –
COc1c(F)cccc1Nc1ncc(C)c(-n2ccc(C(=O)NC(CO)c3cccc(Cl)c3)c2)n1 (centres unmarked) [Example 143, N-(1-(3-chloro-phenyl)-2-hydroxy-ethyl)-1-(2-((3-fluoro-2-methoxy-phenyl)amino)-5-methyl-pyrimidin-4-yl)-1H-pyrrole-3-carboxamide] | – | – | 250 to 500 nM | 250 to 500 nM | 500 to 2500 nM | –
O=C(NC(CO)c1cccc(Cl)c1)c1ccn(-c2cc(Nc3ccccc3)ncc2Cl)c1 (centres unmarked) [Example 124, 1-(5-chloro-2-(phenyl-amino)pyridin-4-yl)-N-(1-(3-chlorophenyl)-2-hydroxy-ethyl)-1H-pyrrole-3-carboxamide] | – | – | > 2500 nM | 500 to 2500 nM | 500 to 2500 nM | –
O=C(NC(CO)c1cccc(Cl)c1)c1ccn(-c2ccnc(Nc3ccc4c(c3)OC(F)(F)O4)n2)c1 (centres unmarked) [Example 176, N-(1-(3-chlorophenyl)-2-hydroxyethyl)-1-(2-((2,2-difluorobenzo[d][1,3]dioxol-5-yl)amino)pyrimidin-4-yl)-1H-pyrrole-3-carboxamide] | – | – | > 2500 nM | 500 to 2500 nM | 500 to 2500 nM | –
Cc1cnc(NC2CCOCC2)nc1-n1cnc(C(=O)NCc2cccc(Cl)c2CN)c1 [Example 285, N-(2-(aminomethyl)-3-chlorobenzyl)-1-(5-methyl-2-((tetrahydro-2H-pyran-4-yl)amino)pyrimidin-4-yl)-1H-imidazole-4-carboxamide] | – | – | 100 to 250 nM | ≤ 100 nM | ≤ 100 nM | –
CNCCNC[C@@H](NC(=O)c1cn(-c2nc(NC3CCOCC3)ncc2C)cn1)c1cccc(Cl)c1 [Example 345] | – | – | 500 to 2500 nM | – | 500 to 2500 nM | > 2500 nM
Cc1cnc(Nc2ccc(N3CCOCC3)cc2)nc1-n1ccc(C(=O)NC(CO)c2cccc(Cl)c2)c1 (centres unmarked) [Example 205, N-(1-(3-chlorophenyl)-2-hydroxyethyl)-1-(5-methyl-2-((4-morpholinophenyl)amino)pyrimidin-4-yl)-1H-pyrrole-3-carboxamide] | – | – | 250 to 500 nM | 100 to 250 nM | 100 to 250 nM | –
Cc1cnc(Nc2ccc(F)cc2Cl)nc1-n1ccc(C(=O)NC(COC(=O)C(N)CC(C)C)c2ccccc2)c1 (centres unmarked) [Example 150, 2-(1-(2-((2-chloro-4-fluorophenyl)-amino)-5-methyl-pyrimidin-4-yl)-1H-pyrrole-3-carboxamido)-2-phenylethyl 2-amino-4-methyl-pentanoate] | – | – | > 2500 nM | 500 to 2500 nM | > 2500 nM | –
Cc1cnc(Nc2ccc(F)cc2)cc1-n1ccc(C(=O)NC(CN)c2ccc(F)c(Cl)c2)c1 (centres unmarked) [Example 164, N-(2-amino-1-(3-chloro-4-fluoro-phenyl)ethyl)-1-(2-((4-fluorophenyl)-amino)-5-methyl-pyridin-4-yl)-1H-pyrrole-3-carboxamide] | – | – | > 2500 nM | 500 to 2500 nM | 500 to 2500 nM | –
